Assay results from US20250223276A1, “Substituted Pyrrolidinyl And Piperidinyl Compounds And Related Methods Of Treatment” (Alkermes, Inc., priority 2022, published 2025).

Each compound was assayed against T1, human orexin-2 receptor (OX2R) (Homo sapiens, UniProt O43614) (assay: Human OX2R IP1 assay). Details: T-Rex CHO cells stably overexpressing human OX2R; IP1 (inositol monophosphate) accumulation, HTRF; 1 hr at 37 degrees C.
T1 construct: expressed in transfected cells
T1 sequence (O43614 1-444): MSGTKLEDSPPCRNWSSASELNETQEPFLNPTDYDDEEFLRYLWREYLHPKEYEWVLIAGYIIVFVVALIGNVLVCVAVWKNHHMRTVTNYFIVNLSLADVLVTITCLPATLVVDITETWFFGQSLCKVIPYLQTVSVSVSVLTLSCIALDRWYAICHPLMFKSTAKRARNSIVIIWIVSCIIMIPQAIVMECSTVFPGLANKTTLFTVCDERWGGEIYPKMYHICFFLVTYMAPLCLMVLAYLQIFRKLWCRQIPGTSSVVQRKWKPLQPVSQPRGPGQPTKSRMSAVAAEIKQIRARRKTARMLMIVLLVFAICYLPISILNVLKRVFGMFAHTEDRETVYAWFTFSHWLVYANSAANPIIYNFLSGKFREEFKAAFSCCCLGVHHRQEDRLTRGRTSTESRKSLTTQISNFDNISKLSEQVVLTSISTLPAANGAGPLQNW
Type: cell-based
Method: T-Rex CHO cells stably overexpressing the human orexin-2 receptor (OX2R) are induced overnight with 1 μg/mL of doxycycline in a T225 flask. 24 hours post induction, cells are lifted with accutase and plated into a 384-well proxy plate at 30,000 cells/well. Cells are then treated with different test compounds in 1× stimulation buffer containing 10 mM Hepes, 1 mM CaCl2), 0.5 mM MgCl2, 4.2 mM KCl, 146 mM NaCl, 5.5 mM glucose, and 50 mM LiCl, pH 7.4, for 1 hr at 37 degrees C. Following incubation, the reaction is terminated by the addition of detection mix, which is composed of IP1-d2 and anti-IP1-cryptate diluted in lysis buffer as well as 1× stimulation buffer. The plates are allowed to incubate for 1 hour at room temperature and are then read in the En Vision® multimode plate reader, measuring inositol phosphate levels.
Cisbio IP1 is a cell-based functional assay quantifying the accumulation of inositol monophosphate (IP), a metabolite released as a result of orexin 2 receptor activation through the phospholipase C-Gq signaling pathway. This is a competitive immunoassay in which the IP1 produced by the cells upon receptor activation competes with the IP1 analog coupled to the d2 fluorophore (acceptor) for binding to an anti-IP1 monoclonal antibody labeled with Eu cryptate (donor). The measured HTRF-FRET based signal is inversely proportional to the IP1 concentration produced.
The EC50 values reported in Table 2 were obtained according to the human OX2R IP1 assay described above. Data are the mean EC50 values±S.E.M.
C[C@@H](OC(=O)N1CC[C@H](NS(=O)(=O)N(C)C)[C@H](CO[C@H]2CC[C@@H](c3cccc(F)c3)CC2)C1)C(F)F [Compound 65] was tested, and the EC50 was 100 to 1000 nM.
In the case of CN(C)S(=O)(=O)N[C@H]1CCN(C(=O)OCC2(F)CCC2)C[C@H]1CO[C@H]1CC[C@@H](c2cccc(F)c2)CC1 [Compound 66], the EC50 is reported as > 1000 nM.
For O=C(NC1CCN(c2cccnn2)CC1CO[C@H]1CC[C@@H](c2cccc(F)c2)CC1)C(F)(F)F (stereo partly drawn) [Compound 67], the EC50 was > 1000 nM.
